Experiments:
Type in all cases: cell-based, human
MCF7 (Breast) = test: 3-cell line, one dose primary anticancer assay (NCI); details: 1.000E−04 Molar, 48 hours, percent of growth vs untreated control cells; negative numbers indicate cell kill
Method: (§1) The following cell culture tests were performed by the National Cancer Institute of the National Institute of Health. The compounds listed below have been evaluated in the 3-cell line, one dose primary anticancer assay. The compounds which pass our criteria for activity in this assay will be scheduled automatically for evaluation against the full panel of 60 tumor cell lines. For the past 10 years, the Development Therapeutic Program (DTP), Division of Cancer Treatment and Diagnosis (DCTD), National Cancer Institute (NCI) has used an in vitro model consisting of 60 human tumor cell lines as the primary anticancer screen [Ref: J. Natl, Cancer Inst., 83:757-766, 1991].
(§2) 95% of the actives from the 60 cell line screen can be identified using only three cell lines. For this reason, the DTP has now begun using, as its primary anticancer assay, a 3-cell line panel consisting of the MCF7 (Breast), NCI-H460 (Lung), and SF-268 (CNS). This 3-cell line, one-dose assay has been in use by DTP for several years for the evaluation of combinatorial libraries and has proven to be an effective pre-screen.
(§3) In the current protocol, each cell line is inoculated and preincubated on a microtiter plate. Test agents are then added at a single concentration and the culture incubated for 48 hours. End-point determinations are made with alamar blue (Biotechniques 21(5) 780-782 (1996)). Results for each test agent are reported as the percent of growth of the treated cells when compared to the untreated control cells. Compounds which reduce the growth of any one of the cell lines to approximately 32% or less (negative numbers indicate cell kill) are passed on for evaluation in the full panel of 60 cell lines over a 5-log dose range.

[1] = tested on: NCI-H460 (Non Small Cell Lung); test: as above; details: 1.000E−04 Molar, 48 hours, percent of growth vs untreated control cells; negative numbers indicate cell kill
Method: as §1, §2, §3

SF-268 (CNS) = test: as above; details: 1.000E−04 Molar, 48 hours, percent of growth vs untreated control cells; negative numbers indicate cell kill
Method: as §1, §2, §3

DU-145 (prostate cancer) = test: 60 cell-line tests; details: even at 1.000E-08 molar concentration
Method: as §1, §3

Delta cancer cell lines = test: 60 cell-line tests
Method: as §1, §3

[2] = tested on: EKVX (non-small cell lung cancer); test: 60 cell-line tests; details: even at 1.000E-08 molar concentration
Method: as §1, §3

[3] = tested on: MDA-MB-435 (breast cancer); test: 60 cell-line tests; details: even at 1.000E-08 molar concentration
Method: as §1, §3

PC-3 (prostate cancer) = test: 60 cell-line tests
Method: as §1, §3

SF-539 (CNS cancer) = test: 60 cell-line tests; details: even at 1.000E-08 molar concentration
Method: as §1, §3

other cell lines = test: 60 cell-line tests; details: other cell lines of the 60 cell-line panel
Method: as §1, §3

CAKI-1 (renal cancer) = test: 60 cell-line tests
Method: as §1, §3

[4] = tested on: CCRF-CEM (and other leukemia cancer cells); test: 60 cell-line tests
Method: as §1, §3

HCT (colon cancer) = test: 60 cell-line tests
Method: as §1, §3

[5] = tested on: NCI-H522 (non-samll cell lung cancer); test: 60 cell-line tests
Method: as §1, §3

| Molecule | Growth Percentage (Breast) MCF7 (MCF7 (Breast)) [%] | Growth Percentage (Non Small Cell Lung) NCI-H460 [1] [%] | Growth Percentage (CNS) SF-268 (SF-268 (CNS)) [%] | killing of cancer cells (DU-145 (prostate cancer)) | killing of cancer cells (Delta cancer cell lines; Delta cancer cell lines, even at 1.000E-08 molar concentration) | killing of cancer cells [2] | killing of cancer cells [3] | killing of cancer cells (PC-3 (prostate cancer); even at 1.000E-08 molar concentration) | killing of cancer cells (SF-539 (CNS cancer)) | effect against other cell lines (other cell lines) | selectivity for cancer cells (CAKI-1 (renal cancer)) | selectivity for cancer cells [4] | selectivity for cancer cells (Delta cancer cell lines; Delta cancer) | selectivity for cancer cells (HCT (colon cancer)) | selectivity for cancer cells [5] | selectivity for cancer cells (PC-3 (prostate cancer)) |
| --- | --- | --- | --- | --- | --- | --- | --- | --- | --- | --- | --- | --- | --- | --- | --- | --- |
| CN(C)c1ccc2c(c1)C1OCCC1C(CCCO)N2 (stereo not shown) [3-3, 2,3,3a,4,5,9b-hexahydro-4-(3-hydroxypropyl)-8-dimethylamino-furano[3,2-c]quinoline] | 7 | 100 | 77 | – | – | – | – | – | – | – | – | – | – | – | – | – |
| 6,6a,7,8-tetrahydro-7-(2-o-hydroxyphenyl)ethyl-2H-benzopyrano[3,2-a]quinoline [4-1] | 0 | 0 | 0 | – | – | – | – | – | – | – | – | – | – | – | – | – |
| OCCCC1Nc2ccc(Nc3ccccc3)cc2C2OCCC12 (stereo not shown) [3-2, 2,3,3a,4,5,9b-hexahydro-4-(3-hydroxypropyl)-8-phenylamino-furano[3,2-c]quinoline] | 0 | 57 | 22 | – | – | – | – | – | – | – | – | – | – | – | – | – |
| OCCCCC1Nc2ccc(Nc3ccccc3)cc2C2OCCCC12 (stereo not shown) [3-1, 3,4,4a,5,6,10b-hexahydro-5-(4-hydroxybutyl)-9-phenylamino-2H-pyrano[3,2-c]quinoline] | −1 | −1 | −1 | highly potent and selectively killed | highly potent and selectively killed | highly potent and selectively killed | highly potent and selectively killed | highly potent and selectively killed | highly potent and selectively killed | very week effect | – | – | – | – | – | – |
| OCCCCC1Nc2ccc(O)cc2C2OCCCC12 (stereo not shown) [5-1, 3,4,4a,5,6,10b-hexahydro-5-(4-hydroxybutyl)-9-hydroxy-2H-pyrano[3,2-c]quinoline] | 0 | 29 | 2 | – | – | – | – | – | – | – | moderately selective | moderately selective | highly selective | moderately selective | moderately selective | highly selective |
